This is an account of results in paper PMC12567141, “Design, Synthesis and Biological Evaluation of Pyrazolopyrimidine Derivatives as Aryl Hydrocarbon Receptor Antagonists for Colorectal Cancer Immunotherapy” (Pharmaceutics, 2025).

Data set [1] has as its system MC38 tumor. The data set is described as follows: In vivo therapy, MC38 syngeneic model. On the set-up: species or system mice. The following applies: MC38 model, comparison of 7k and 3′,4′-dimethoxyflavone, 10 mg/kg oral once a day, 18 days. The procedure: In vivo experiments were conducted using 6-week-old male immunocompetent BALB/c and C57BL/6 with 18–20 g body weight (Orient Bio Inc., Seungnam, Republic of Korea). All animal experimental procedures were maintained and used in accordance with the Guidelines for the Care and Use of Laboratory Animals of the Institute of Laboratory Animal Center, Daegu-Gyeongbuk Medical Innovation Foundation (K-MEDI hub). The animal studies were conducted after approval by the institutional reviewer board on the Ethics of Animal Experiments of the Daegu-Gyeongbuk Medical Innovation Foundation (approval number: KMEDI-24041103-01).
Study 1: Antitumor activity of 7k alone in mice with either CT26 syngeneic model or MC38 syngeneic model. Mice were subcutaneously challenged with 5 × 10^5 either MC38 or CT26 cells. […]
The 7k was dissolved in solution including 5% DMSO, 55% DW, and 40% PEG. Tumor size was measured with a caliper at the indicated time points, and tumor volume (mm^3) was calculated using the following formula, tumor volume (mm^3) = d2 × D/2, where d and D are the shortest and longest diameters in mm, respectively.

Data set [2] has as its target T1, AhR (Danio rerio, UniProt Q9YGV3). On the set-up: method as in PMID 34223158, PMID 10913616, PMID 31358358. The following applies: reported AhR antagonists, Figure 2; cited from earlier work.
For data set [3], the system named is AhR. The data set is described as follows: AhR antagonist screening using Tg(cyp1a:egfp) zebrafish. The data set is classed as in vivo. Details: key to AhR Antagonist Activity at 100 nM: - no inhibition; + weak; ++ mild; +++ moderate; ++++ high; +++++ very high. The following applies: for AhR Antagonist Activity at 100 nM: extent of GFP reduction in Tg(cyp1a:egfp) zebrafish compared to the TCDD (2 nM) control, 48 h; for AhR antagonistic activity in zebrafish, in words: Tg(cyp1a:egfp) zebrafish, EGFP readout. The procedure:
At 30 hpf, Tg(cyp1a:egfp) embryos were placed in a 2-mL screw-capped glass vial with five embryos per vial. Each vial contained 1 mL of E3 media (5 mM NaCl, 0.17 mM KCl, 0.33 mM CaCl2·2H2O and 0.4 mM MgCl2·6H2O, pH 7.2) and supplemented with 2 nM TCDD (1746-01-6; AccuStandard Inc., New Haven, NH, USA) dissolved in DMSO. The compounds were subsequently diluted and individually introduced into the vials, achieving a final concentration of 0.1% DMSO. The embryos were then incubated for 48 h and then embryonic EGFP expression was evaluated using a fluorescent stereomicroscope (SteREO Discovery V8; Zeiss, Oberkochen, BW, Germany). As a positive control, StemRegenin1 (72342, […] Technologies, Vancouver, BC, Canada) was employed.
To evaluate AhR antagonistic activity, we conducted an AhR antagonist assay using transgenic zebrafish. Zebrafish have garnered significant attention as model organisms for drug discovery because they share metabolic pathways with mammals. […] Therefore, we synthesized more meta substituted phenyl derivatives. […] We also synthesized heteroaromatic derivatives including pyrimidine and pyridine at 5-position; however, their activities were decreased.

The target in data set [4] is T1, AhR. The data set is described as follows: IC50 determination, Cyp1a dual luciferase reporter assay in transfected COS-7 cells. The data set is classed as cell-based. The following applies: AhR2/ARNT-1c/Cyp1a-luciferase, TCDD 10 nM. As to the method: All experiments were conducted as described previously unless stated otherwise. COS-7 cells were seeded onto 24-well plate until approximately 65% confluency. The cells were transfected with ARNT-1c expression plasmid (50 ng), AhR2 expression plasmid (5 ng), Cyp1a-firefly luciferase reporter plasmid (20 ng) and pRL-TK Renilla luciferase plasmid (2 ng) using Lipofectamine 3000 (Thermo Fisher Scientific) according to the manufacturer’s protocol. The pEGFP-C1 plasmid (Clontech, Tempe, AZ, USA) was used to assess the transfection efficiency. At 5 h post transfection, serially diluted test compounds at indicated concentration were added to the cells. Simultaneously, TCDD (10 nM) or indicated compounds with the highest concentration were added in the control wells. At 1 h post compound treatment, TCDD (10 nM) was added to all wells except the control wells. At 18 h post TCDD treatment, the medium was removed, and the cells washed with Dulbecco’s phosphate buffered saline (DPBS) and harvested using 1x Passive Lysis Buffer (Promega, Madison, WI, USA). The dual luciferase assay was carried out using a Dual-Luciferase Reporter Assay System (Promega, Madison, WI, USA) and an Orion L Microplate Luminometer (Titertek Berthold, Pforzheim, BW, Germany) as per manufacturer’s protocol. The relative light unit (RLU) values were normalized and expressed as toxic induced ratio (TIR). IC50 was determined using Prism 9.0 (GraphPad Software).
(In general: A reporter such as luciferase makes a cellular process visible.)

For data set [5], the system named is colorectal cancer cells. The data set is described as follows: Cell viability assay (CCK-8), colorectal cancer cells. The data set is classed as cell-based. The note with it: 24 h. As to the method: (§1) Chinese hamster ovary CHO cells, mouse fibroblast L929 cells, normal colon CCD18-Co cells, monkey kidney fibroblast COS-7 cells, colorectal cancer cells including HCT-116, RKO, SW480, SW620, CT26, and MC38 cells were purchased from ATCC (American Type Culture Collection). CHO, L929, Cos-7, and all cancer cells were maintained in RPMI 1640 or DMEM supplemented with 10% FBS (Gibco FBS; Thermo Fisher Scientific, Hanover Park, IL, USA) and 1% streptomycin/penicillin. CCD18-Co cells were cultured in high-glucose Dulbecco modified Eagle medium containing 10% FBS and 1% streptomycin/penicillin. All cells were grown in 5% CO2 at 37 °C. Mycoplasma testing was regularly performed every month using the BioMycoX Mycoplasma PCR Detection Kit (CellSafe, Yongin, Republic of Korea).
(§2) Cell viability was analyzed using a Cell Counting Kit-8 (Dojindo molecular technologies, Rockville, MD, USA). Cells were seeded in 96-well plates and treated with different concentrations of 7k. At the indicated time points, CCK-8 (10 μL/well) reagents were added to the cells, followed by further incubation at 37 °C for 90 min. The absorbance at 450 nm was measured using a plate reader (BioTek instruments, Winooski, VT, USA).

Data set [6] relates to normal cells (CHO, L929, CCD-18Co). The data set is described as follows: Cell viability assay (CCK-8), normal cells. The data set is classed as cell-based. The note with it: 24 h, 7k: CHO, SR-1: CCD-18Co. As to the method:
as §1, §2

pIC50: −log10 of the molar value. Values joined by “and” are separate entries in the source; they are usually repeats but may differ in a detail not shown here. Equal entries are not always repeated. Where two headings read alike, the source gives them in different places.

T1 sequence (Q9YGV3 1-1027): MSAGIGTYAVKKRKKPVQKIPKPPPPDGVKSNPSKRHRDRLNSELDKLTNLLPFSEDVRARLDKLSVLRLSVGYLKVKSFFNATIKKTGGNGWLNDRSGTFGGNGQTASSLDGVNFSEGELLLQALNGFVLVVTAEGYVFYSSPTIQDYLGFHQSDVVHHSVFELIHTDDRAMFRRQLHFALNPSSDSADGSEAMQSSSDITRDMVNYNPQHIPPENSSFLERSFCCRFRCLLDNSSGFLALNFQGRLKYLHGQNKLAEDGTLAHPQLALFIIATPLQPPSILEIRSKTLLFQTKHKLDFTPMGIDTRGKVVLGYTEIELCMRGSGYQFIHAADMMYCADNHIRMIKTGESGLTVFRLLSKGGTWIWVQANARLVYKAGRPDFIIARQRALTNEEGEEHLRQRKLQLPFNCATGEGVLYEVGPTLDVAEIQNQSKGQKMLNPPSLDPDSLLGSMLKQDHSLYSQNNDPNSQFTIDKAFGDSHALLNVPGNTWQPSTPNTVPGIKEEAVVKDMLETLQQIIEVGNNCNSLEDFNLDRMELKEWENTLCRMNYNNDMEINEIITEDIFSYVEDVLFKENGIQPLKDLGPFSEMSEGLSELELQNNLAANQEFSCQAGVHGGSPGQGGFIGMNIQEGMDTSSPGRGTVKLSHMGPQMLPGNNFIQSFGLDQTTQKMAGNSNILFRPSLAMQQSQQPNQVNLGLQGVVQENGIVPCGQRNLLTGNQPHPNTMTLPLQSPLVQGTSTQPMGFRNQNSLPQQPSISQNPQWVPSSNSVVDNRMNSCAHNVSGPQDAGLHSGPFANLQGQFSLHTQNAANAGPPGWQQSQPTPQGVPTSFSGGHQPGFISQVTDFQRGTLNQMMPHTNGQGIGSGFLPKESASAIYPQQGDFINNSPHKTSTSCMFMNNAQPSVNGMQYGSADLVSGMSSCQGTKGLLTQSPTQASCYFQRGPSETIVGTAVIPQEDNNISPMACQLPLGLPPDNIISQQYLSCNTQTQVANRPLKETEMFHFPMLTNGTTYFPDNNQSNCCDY
T1 sequence (Q64FF9 1-503 partner): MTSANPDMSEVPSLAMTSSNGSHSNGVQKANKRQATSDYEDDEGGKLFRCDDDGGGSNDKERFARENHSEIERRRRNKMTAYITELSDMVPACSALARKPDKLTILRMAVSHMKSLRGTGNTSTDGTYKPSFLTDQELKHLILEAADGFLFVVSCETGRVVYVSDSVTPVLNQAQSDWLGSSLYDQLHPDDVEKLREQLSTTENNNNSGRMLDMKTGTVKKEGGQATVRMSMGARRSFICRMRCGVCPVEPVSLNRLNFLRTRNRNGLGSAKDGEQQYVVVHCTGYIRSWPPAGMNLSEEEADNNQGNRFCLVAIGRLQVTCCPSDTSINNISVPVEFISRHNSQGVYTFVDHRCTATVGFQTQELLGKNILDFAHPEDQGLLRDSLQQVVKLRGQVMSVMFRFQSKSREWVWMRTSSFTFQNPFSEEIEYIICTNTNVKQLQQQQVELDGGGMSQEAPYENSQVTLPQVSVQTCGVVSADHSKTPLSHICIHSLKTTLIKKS

Take `COc1ccc(-c2cc(=O)c3ccccc3o2)cc1OC` [3′,4′-dimethoxyflavone, reference compound]: the “tumor growth inhibition (TGI)” value in data set [1] is given as 37%.
With `C[C@@H](CO)NC(=O)c1cc(-c2ccc(Cl)cc2)nn(-c2cnn(C)c2)c1=O` [BAY 2416964], the pIC50 in data set [2] was 6.47.
For `C[C@@H](CO)NC(=O)c1cc(-c2ccc(Cl)cc2)nn(-c2cccc(F)c2)c1=O` [BAY-128], the pIC50 in data set [2] is 7.40.
As to `CC(C)n1cc2nc(-c3ccccc3)nc(NCCc3c[nH]c4ccccc34)c2n1` [Compound 7a], the “AhR Antagonist Activity at 100 nM” value in data set [3] was “+”.
As for `CC(C)n1cc2nc(-c3ccc(C#N)cc3)nc(NCCc3c[nH]c4ccccc34)c2n1` [Compound 7b], in data set [3], the “AhR antagonistic activity in zebrafish, in words” value (“AhR antagonistic activity” for short) is recorded as “better activity compared with those of the hit compound” and the “AhR Antagonist Activity at 100 nM” value is reported as “++”.
As for `CC(C)n1cc2nc(-c3cccc(C#N)c3)nc(NCCc3c[nH]c4ccccc34)c2n1` [Compound 7c], the “AhR Antagonist Activity at 100 nM” value in data set [3] is on record as “++++”. In data set [4], this compound gave a negative logarithm of the IC50 (pIC50) of 6.77.
On to `CC(=O)c1cccc(-c2nc(NCCc3c[nH]c4ccccc34)c3nn(C(C)C)cc3n2)c1` [Compound 7d], for which, in data set [3], the “AhR antagonistic activity” value is given as “didn’t show AhR inhibition” and the “AhR Antagonist Activity at 100 nM” value is on record as “-”.
The corresponding values for `CC(C)n1cc2nc(-c3cccc(C(F)(F)F)c3)nc(NCCc3c[nH]c4ccccc34)c2n1` [Compound 7e] are “didn’t show AhR inhibition” and “-”.
As for `CC(C)n1cc2nc(-c3cccc(N)c3)nc(NCCc3c[nH]c4ccccc34)c2n1` [Compound 7f], in data set [3], the “AhR antagonistic activity” value is on record as “didn’t show AhR inhibition” and the “AhR Antagonist Activity at 100 nM” value is listed as “-”.
With `CCn1cc2nc(-c3cccc(C#N)c3)nc(NCCc3c[nH]c4ccccc34)c2n1` [Compound 7g], in data set [3], the “AhR antagonistic activity” value is listed as “lower activity than that of the isopropyl compound” and the “AhR Antagonist Activity at 100 nM” value was “+++”.
Taken in the same sequence, the figures for `CCCCn1cc2nc(-c3cccc(C#N)c3)nc(NCCc3c[nH]c4ccccc34)c2n1` [Compound 7h] were “lower activity than that of the isopropyl compound” and “+++”.
The corresponding values for `CC(C)n1cc2nc(-c3cccc(C#N)c3)nc(NCCc3c[nH]c4ccc(O)cc34)c2n1` [Compound 7i] are “decreased AhR inhibition” and “-”.
With `CC(C)n1cc2nc(-c3cccc(F)c3)nc(NCCc3c[nH]c4ccccc34)c2n1` [Compound 7j], the “AhR Antagonist Activity at 100 nM” value in data set [3] is reported as “++++”. The pIC50 in data set [4] was 6.39 and 6.38.
With `CC(C)n1cc2nc(-c3cccc(OC(F)(F)F)c3)nc(NCCc3c[nH]c4ccccc34)c2n1` [Compound 7l], in data set [3], the “AhR antagonistic activity” value is reported as “decreased activities” and the “AhR Antagonist Activity at 100 nM” value is reported as “+++”. In addition, the pIC50 in data set [4] was 6.52.
Regarding `CC(C)n1cc2nc(-c3cccc(C(=O)OC(C)(C)C)c3)nc(NCCc3c[nH]c4ccccc34)c2n1` [Compound 7m], in data set [3], the “AhR antagonistic activity” value is reported as “decreased activities” and the “AhR Antagonist Activity at 100 nM” value was “-”.
Consider `CC(C)c1cnn2c(N[C@H]3CCc4[nH]c5ccccc5c4C3)nc(-c3cncc(F)c3)nc12` [IK-175], for which the pIC50 in data set [2] was > 6.30.
Consider `Cc1ccccc1-c1cc2cc(NC(=O)c3ccnn3C)ccc2[nH]1` [PX-A24590], for which, in data set [2], the negative logarithm of the IC50 (pIC50) was 7.22.
Consider `CC(C)n1cnc2c(NCCc3ccc(O)cc3)nc(-c3csc4ccccc34)nc21` [SR-1, StemRegenin 1, reference compound], for which the “AhR Antagonist Activity at 100 nM” value in data set [3] is given as “+++”. For the same compound, the pIC50 is 6.70 in data set [4] and 6.90 in data set [2]. Besides, in data set [5], the “cell proliferation / viability of colorectal cancer cells” value is reported as “reduced the viability of colorectal cancer cells”. The “cell viability of normal cells” value in data set [6] is given as “little effect”.

As usually defined, the pIC50 is the IC50 on a negative log10 scale, so that one unit is a factor of ten.
